Earlier results on five compounds are cited in patent US20230346889A9, “TREATMENT OF ACUTE HEART FAILURE” (AnaCardio R&D AB, priority 2019, published 2023).

Data set [1] has as its system patients with heart failure. Particulars: cited from earlier work; for association with mortality: observational ADHERE Registry.
Data set [2] relates to dogs with acute myocardial infarction. Particulars: US2004014671A1; cited from earlier work.

Non-standard residues stand in square brackets, D forms with d. Residues, ends and D or L forms follow the SMILES beside them. dTrp(2-Me) = Cc1[nH]c2ccccc2c1C[C@@H](N)C(=O)O; d2Nal = N[C@H](Cc1ccc2ccccc2c1)C(=O)O

In the case of `Cc1[nH]c(=O)c(C#N)cc1-c1ccncc1` [milrinone], the association with mortality result in data set [1] is on record as “independently associated with increased mortality”. Further, in data set [1] (randomized OPTIME CHF), the “adverse outcomes vs. placebo” value is “caused significantly more hypotension and atrial arrhythmias and non-significantly more deaths”.

Turning to `CC(CCc1ccc(O)cc1)NCCc1ccc(O)c(O)c1` (stereo not shown) [dobutamine], in data set [1], the association with mortality entry is on record as “independently associated with increased mortality”.

For the compound `C[C@@H]1CC(=O)NN=C1c1ccc(NN=C(C#N)C#N)cc1` [Levosimendan], the “hypotension and arrhythmias vs. placebo” value in data set [1] (REVIVE I and II) was “increased hypotension and arrhythmias vs. placebo”. In addition, the “effect on CO and blood pressure” value in data set [1] (human, in vivo) is listed as “increases CO but also causes hypotension”.

As to `Cc1[nH]c2ccccc2c1C[C@@H](NC(=O)[C@@H](N)Cc1cnc[nH]1)C(=O)N[C@@H](C)C(=O)N[C@@H](Cc1c[nH]c2ccccc12)C(=O)N[C@H](Cc1ccccc1)C(=O)N[C@@H](CCCCN)C(N)=O` [hexarelin] (H-H[dTrp(2-Me)]AW[dF]K-NH2), in data set [2], the “improvement of CO” value was “not”.

With `C[C@H](NC(=O)[C@@H](Cc1ccc2ccccc2c1)NC(=O)[C@@H](C)N)C(=O)N[C@@H](Cc1c[nH]c2ccccc12)C(=O)N[C@H](Cc1ccccc1)C(=O)N[C@@H](CCCCN)C(N)=O` [Pralmorelin] (H-[dA][d2Nal]AW[dF]K-NH2), the “improvement of CO” value in data set [2] is recorded as “improved”.
